Experiments:
Type in all cases: functional
Streptomyces chartreusis [1] = assay: The compound was tested in vitro for antimicrobial activity against […] bacteria Streptomyces chartreusis (NRRL 11407) by conventional paper disk; 9-10
Bacillus cereus = assay: The compound was tested in vitro for antimicrobial activity against gram-positive bacteria Bacillus cereus (ATCC 14579) by conventional paper disk; 7-8
Prescottella equi [2] = assay: The compound was tested in vitro for antimicrobial activity against gram-positive bacteria Corynebacterium equi (IFO 3720) by conventional paper disk; 9-10
Streptomyces chartreusis [3] = assay: The compound was tested in vitro for antimicrobial activity against […] bacteria Streptomyces chartreusis (NRRL 11407) by conventional paper disk; 7-8
Prescottella equi [4] = assay: The compound was tested in vitro for antimicrobial activity against gram-positive bacteria Corynebacterium equi (IFO 3720) by conventional paper disk; 7-8
Enterococcus faecalis = assay: The compound was tested in vitro for antimicrobial activity against gram-positive bacteria Enterococcus faecalis (ATCC 11700) by conventional paper disk; 7-8

| Structure (SMILES) | Inhibition zone (Streptomyces chartreusis [1]) | Inhibition zone (Bacillus cereus) | Inhibition zone (Prescottella equi [2]) | Inhibition zone (Streptomyces chartreusis [3]) | Inhibition zone (Prescottella equi [4]) | Inhibition zone (Enterococcus faecalis) |
| --- | --- | --- | --- | --- | --- | --- |
| C=CCn1c(-c2c[nH]c3ccccc23)c(-c2c[nH]c3ccccc23)oc1=O | 9 mm | 7 mm | 9 mm |  |  |  |
| O=c1oc(-c2c[nH]c3ccccc23)c(-c2c[nH]c3ccccc23)n1Cc1ccccc1 |  | 7 mm |  | 7 mm | 7 mm |  |
| C[C@H](C(=O)O)n1c(-c2c[nH]c3ccccc23)c(-c2c[nH]c3ccccc23)oc1=O | 9 mm | 7 mm |  |  | 7 mm | 7 mm |
| CCCn1c(-c2c[nH]c3ccccc23)c(-c2c[nH]c3ccccc23)oc1=O | 9 mm | 7 mm |  |  | 7 mm |  |

From ChEMBL document CHEMBL1130545, “Synthesis and antimicrobial activities of 3-N-substituted-4,5-bis(3-indolyl)oxazol-2-ones” (1997)
